# Results from patent US20140079836A1, “METHODS AND COMPOSITIONS FOR ALTERING HEALTH, WELLBEING, AND LIFESPAN” (LifeSpan Extension, LLC, priority 2008, published 2014).
# Key:
# [1] = test system: genes involved in longevity (Array 1); assay: Custom RT-PCR microarray (Array 1) gene expression in skin fibroblasts, UVB/UVA1; type: cell-based, human; settings: donor three IDE + UVB vs. Green tea + UVB Continuous Incubation; for PPC gene expression fold change / RTC gene expression fold change: control well
# Experimental: Seeding of cells: On Day 1, each cell culture was seeded into 6 well cluster dishes at ˜1.5×10^5 cells in 4 mls medium per well. Three wells were seeded per test condition or control.
# Experimental phase: On Day 3, wells were washed 1× with 2 mls medium, fed back 2 mls medium without fetal bovine serum and preincubated for 30-60 minutes before challenge with test or control conditions. After the preincubation, medium was aspirated from the wells and 2.5 mls of test or control condition in medium with 1% fetal bovine serum was pipetted into the appropriate wells.
# (3) UVA1, UVB exposed and unexposed cells without test condition were used as controls. The experimental phase ended at 24 hours post UV exposure. Cells from each test and control parameter were then prepped for RNA isolation as described below.
# UVB/UVA1 exposure: Cells exposed to UV received 200 mJ/cm^2 UVB/1 MED UVA1 using Thermo Oriel solar simulator model SP66923-3056. Cells were exposed from the bottom of the culture dish. The UV dose delivered to the cells was adjusted for interference from the plastic in the culture dish.
# Preparation of RNA: The RNA was isolated using the Qiagen RNEasy Plus Mini Kit according to the manufacturer's protocol which can be found on the World Wilde Web at qiagen.com/literature/Defaultaspx?Term=&Language=EN&LiteratureType=4& ProductCategory=10162. The RNA was quantified and examined for purity using the 260/280 nm read method in a μ Quant spectrophotometer before use in the array.
# Creation and Performance of a Custom Microarray (“Array 1”): Through the Custom Array design service of Superarray Bioscience Corporation, a 96 well RT-PCR microarray (“Array 1”) was developed to illustrate genetic responses in cells treated as above for specific genes involved in longevity as well as the relevant quality controls. The array was performed in compliance with manufacturer's guidelines and by recommended manufacturer's protocol as can be found on the World Wilde Web at superarray.com/Manual/perarrayplate.pdf
# Custom Microarray Results: The results from the microarrays were determined using the delta CT method which uses comparisons of control genes and threshold cycles of genes of interest to generate relative expression values. The full set of experimental conditions was cross referenced and the data is provided herewith in DATA TABLE 3.
# Preparation of RNA: The RNA was isolated using the Qiagen RNEasy Plus Mini Kit according to the manufacturer's protocol which can be found on the World Wide Web at qiagen.com/literature/Default. aspx?Term=&Language=EN&LiteratureType=4&ProductCategory=10162.
# The RNA was quantified and examined for purity using the 260/280 nm read method in a μ Quant spectrophotometer before use in the array.
# Creation and Performance of the Custom Microarray: Through the Custom Array design service of Superarray Bioscience Corporation, a 96 well RT-PCR Microarray was developed to illustrate genetic responses in cells treated as above for specific genes involved in longevity as well as the relevant quality controls. The array was performed in compliance with manufacturer's guidelines and by recommended manufacturer's protocol as can be found on the World Wide Web at superarray.com/Manual/perarrayplate.pdf.
# Custom Microarray Results: The results from the microarrays were determined using the delta CT method which uses comparisons of control genes and threshold cycles of genes of interest to generate relative expression values. The full set of experimental conditions was cross referenced and the data is provided herewith in DATA TABLE 4.
# Custom Microarray Results: The results from the microarrays were determined using the delta CT method which uses comparisons of control genes and threshold cycles of genes of interest to generate relative expression values. The full set of experimental conditions was cross referenced and the data is provided herewith in DATA TABLE 5. […]
# custom array genes = assay: Chlorogenic acid challenge, custom RT-PCR microarray, dermal fibroblasts ag07999; type: cell-based, human; settings: 24 hours
# Experimental: Human dermal fibroblasts (ag07999) were seeded at near confluency in 6-well dishes in 4 ml MEM, 10% FBS/well. 24 hours after seeding, wells were aspirated and 3 ml chlorogenic acid dilution in MEM, 1% FBS added, or MEM, 1% FBS only for control wells. Chlorogenic acid (Acros Organics, Geel, Belgium) dilutions used were: 0.005%, 0.0005%, 0.00005%, 0.000005% and 0.0000005%. 24 hours after chlorogenic acid challenge, wells were aspirated, 1 ml trypsin-EDTA added to each well, swirled and aspirated. Trypsin-EDTA was again added to each well and cells retrieved with MEM 10% FBS when released from the substratum and centrifuged to a pellet.
# RNA was collected from the harvested cells according to protocol using RT2 qPCR-Grade RNA Isolation Kit from SABiosciences Co. The RNA was then used to create cDNA (using a First Strand Synthesis Kit, SABiosciences, and following the manufacturer's instructions) and run on the BioRad iCycler RT-PCR machine using Custom RT-PCR Microarray (CAPH09464A, SABiosciences) (Array 1) and SYBR Green Reaction Mix (SABiosciences). Data from Example 16 are shown in FIG. 19; additional results are described and analyzed below.
compound,measurement,setting,value
COC1=C(OC)C(=O)C(CCCCCCCCCCO)=C(C)C1=O [IDE],ACE gene expression fold change,[1],−1.13
same,ACTB gene expression fold change,[1],−2.17
same,APOE gene expression fold change,[1],2.43
same,BAX gene expression fold change,[1],−1.01
same,BCL2 gene expression fold change,[1],2.04
same,CASP2 gene expression fold change,[1],−1.96
same,CASP9 gene expression fold change,[1],2.11
same,CCL4L1 gene expression fold change,[1],16.91
same,CLK1 gene expression fold change,[1],1.02
same,COX1 gene expression fold change,[1],1.17
same,CREBBP gene expression fold change,[1],1.49
same,CYP19A1 gene expression fold change,[1],24.76
same,DDC gene expression fold change,[1],58.89
same,GAPDH gene expression fold change,[1],−2.10
same,GH1 gene expression fold change,[1],17.51
same,HIGX1A gene expression fold change,[1],40.22
same,HLA-DRA gene expression fold change,[1],65.34
same,HPRT1 gene expression fold change,[1],1.30
same,HSPA1A gene expression fold change,[1],−1.54
same,HSPA1B gene expression fold change,[1],−2.03
same,HSPA1L gene expression fold change,[1],−1.39
same,IFI44 gene expression fold change,[1],1.09
same,IGF1 gene expression fold change,[1],4.23
same,IGF2 gene expression fold change,[1],−1.16
same,IL1A gene expression fold change,[1],10.41
same,IL6 gene expression fold change,[1],−1.25
same,IL10 gene expression fold change,[1],3.20
same,KRAS gene expression fold change,[1],1.21
same,MAPK14 gene expression fold change,[1],−1.39
same,NADSYN1 gene expression fold change,[1],−2.33
same,NFKB1 gene expression fold change,[1],−1.13
same,NOS2A gene expression fold change,[1],40.22
same,PARP1 gene expression fold change,[1],−2.68
same,PARP2 gene expression fold change,[1],22.32
same,PPARG gene expression fold change,[1],5.39
same,PTGS2 gene expression fold change,[1],3.68
same,SHC1 gene expression fold change,[1],−1.54
same,SIRT1 gene expression fold change,[1],1.39
same,SOD1 gene expression fold change,[1],−2.03
same,SOD2 gene expression fold change,[1],−1.13
same,TEP1 gene expression fold change,[1],1.06
same,TERT gene expression fold change,[1],3.56
same,TNF gene expression fold change,[1],16.91
same,TP53 gene expression fold change,[1],1.39
same,PPC gene expression fold change,[1]; entry r305,−1.48
same,RTC gene expression fold change,[1]; entry r306,1.09
same,PPC gene expression fold change,[1]; entry r311,−1.77
same,RTC gene expression fold change,[1]; entry r312,−3.29
"O=C(/C=C/c1ccc(O)c(O)c1)O[C@@H]1C[C@](O)(C(=O)O)C[C@@H](O)[C@H]1O [chlorogenic acid, -[[3-(3,4-Dihydroxyphenyl)-1-oxo-2-propenyl]oxy]-1,4,5-trihydroxycyclohexanecarboxylic acid]",IFI44 relative expression,custom array genes; FIG. 17,may significantly decrease expression
same,expression of genes in the mitochondrial function/biogenesis pathway,custom array genes; FIG. 21a,primarily decreases gene expression
same,PTGS2 relative expression,"custom array genes; at higher concentrations, FIG. 16",significant decrease in PTGS2 gene expression
same,NOS2A relative expression,"custom array genes; increasing concentrations, FIG. 13",biphasic response
same,SIRT1 relative expression,"custom array genes; increasing concentrations, FIG. 14",entirely decreasing expression
same,CCL4L1 relative expression,"custom array genes; middle dosage (0.00005%), FIG. 11",marked repression
